In general, melting point refers to the temperature, or range, at which the solid turns liquid.

On to `[C-]#[N+]CS(=O)(=O)c1ccc(C)cc1` [compound 3b, 1-((isocyanomethyl)sulfonyl)-4-methylbenzene], for which the melting point is 112 to 113 °C. `[C-]#[N+]CS(=O)(=O)c1ccc(Cl)cc1` [compound 3f, 1-Chloro-4-((isocyanomethyl)sulfonyl)benzene]: the melting point was 109 to 110 °C (dec.). `[C-]#[N+]CS(=O)(=O)c1ccc(F)cc1` [compound 3e, 1-fluoro-4-((isocyanomethyl)sulfonyl)benzene] registered a melting point of 63 °C. The same measure for `[C-]#[N+]CS(=O)(=O)c1cc(Cl)cc(Cl)c1` [compound 3h, 1,3-dichloro-5-((isocyanomethyl)sulfonyl)benzene]: 82 to 83 °C; for `[C-]#[N+]CS(=O)(=O)c1ccc2ccccc2c1` [compound 3d, 2-((isocyanomethyl)sulfonyl)naphthalene]: 104 to 105 °C; for `[C-]#[N+]CS(=O)(=O)c1ccccc1` [compound 3a, ((Isocyanomethyl)sulfonyl)benzene]: 89 to 90 °C. On to `[C-]#[N+]CS(=O)(=O)c1c(OC)cccc1OC` [compound 3p, 2-((Isocyanomethyl)sulfonyl)-1,3-dimethoxybenzene], for which the melting point lay within 90 to 91 °C.

As to `[C-]#[N+]CS(=O)(=O)c1ccc(OC)c(OC)c1` [compound 3k, 4-((isocyanomethyl)sulfonyl)-1,2-dimethoxybenzene], the melting point lay within 101 to 102 °C.

The values are drawn from patent US20150239833A1, “COMPOSITION, SYNTHESIS, AND USE OF NEW ARYLSULFONYL ISONITRILES” (DUQUESNE UNIVERSITY OF THE HOLY GHOST, priority 2014, published 2015).
